Measurements from BindingDB's records for PubMed 35973549 (Pharmaxis, 2022).

test: Inhibition of recombinant human SSAO

Going from `Cc1ccccc1OC/C(=C/F)CN` to `NCC(=CF)COc1ccccc1`, the IC50 falls from 0.288 µM to 0.006 µM (48-fold). The second is the more potent here.

In the case of `NC/C(=C\F)COc1ccccc1`, the IC50 is reported as 0.019 µM.
